Laboratory results published in publication PMC10185643, “Improved LC–MS identification of short homologous peptides using sequence-specific retention time predictors” (Analytical and Bioanalytical Chemistry, 2023).

Assay: Reversed-phase LC-MS experimental retention time of short peptides
Format: physicochemical
Conditions: for RT: experimental retention time, reversed-phase LC-MS, Table S1, column Source gives the peptide's origin (1-4 = synthesis route of homologous peptides, enzyme)
Procedure: All analyses were performed on an UltiMate 3000 RS chromatography system equipped with a UV detector, connected to a Q-Exactive Plus Hybrid Quadrupole-Orbitrap mass spectrometer (Thermo Fischer Scientific, Waltham, MA, USA). An Xselect Peptide CSH C18 130 Å column (particle size 2.5 µm, dimensions 150 × 2.1 mm, Waters, Etten-Leur, the Netherlands) with associated VanGuard pre-column was used for the separations. The analytes were eluted at a flow rate of 0.35 ml/min using a linear gradient of water (solvent A) and acetonitrile (solvent B) both fortified with 0.1% formic acid. […] The column temperature was maintained at 40 °C and the auto-sampler at 4 °C. The injection volume was 5 µL.
The sheath gas was set to 48 arbitrary units, the auxiliary gas was set to 11 arbitrary units, and the spray voltage was set to 3.7 kV. The mass spectrometer was set to operate in full-scan MS data-dependent MS^2 (ddMS^2) mode. Full-scan spectra were acquired at a resolution of 70.000 in the m/z range 80–1200 using a maximum ion injection time of 100 ms, unless stated otherwise. […] The maximum injection time was set to 150 ms, and a normalized stepped collision energy was applied of 15, 30 and 45 arbitrary units.

Row | Substance | RT | RT (retention time) (Table S1, Source: enzyme, experimental reversed-phase LC-MS retention time, decimal comma)
1 | CLVR | 4,57 | 
2 | CPFD |  | 13,62
3 | KCEVF | 4,52 | 
